{"source": "patent US20140127185A1", "about": "“METHODS AND COMPOSITIONS USING NEUROPROTECTIVE STEROIDS AND THROMBOLYTIC AGENTS” (priority 2012, published 2014)", "key": {"claudin-5 [1]": {"system": "claudin-5", "test": "Claudin-5 in H/R-treated bEND3 cells (Western blot)", "assay_type": "cell-based, mouse", "settings": "tPA with H/R", "procedure": "(§1) An immortalized mouse brain endothelial cell line (bEND 3) is purchased from American Type Culture Collection (ATCC, VA, USA) and cultured in Dulbecco's modified Eagle Medium (DMEM, ATCC) supplemented with 10% fetal bovine serum (ATCC). bEND 3 cells are seeded onto the luminal side of a filter (0.4 μm pore size; Corning, Lowell, MCA) coated with fibronectin (5 μg/ml) in 12-well plates for a transendothelial electrical resistance (TEER) test; and in 100-mm dishes for Western blot studies. Cell cultures are incubated at 37° C. in a 5%/95% mixture of CO2 and atmospheric air, and the medium is replaced every 3 days.\nPeri-infarct cortical tissue is processed for protein analysis. Tissues are homogenized in T-per (Pierce, Rockford, Ill.) containing protease inhibitor cocktail (P8340, Sigma). Homogenates are centrifuged for 15 minutes at 13,000 g. […] Intensity of the bands is measured by an Image Gauge version. […]\n(§2) To mimic ischemia-like conditions in vitro, immortalized mouse brain endothelial (bEND3) cells were exposed to 6 hours of hypoxia and 3 hours of reoxygeneation with or without the administration of tPA at a dose of 20 μ/ml. […] BBB integrity was evaluated by transendothelial membrane electrical resistance (TEER) measurement, MMP-9 activity, and the alteration of tight junction proteins following in vitro H/R injury."}, "[2]": {"system": "rats with MCAO induced by homologous blood clots", "test": "Delayed tPA to cause hemorrhage: embolic MCAO model of hemorrhagic transformation", "assay_type": "in vivo, rat", "settings": "recombinant tPA 10 mg/kg through the tail vein at 4.5 hours post MCAO-induction", "text": "A focal thromboembolic model of cerebral ischemia is induced in rats by middle cerebral artery occlusion (MCAO) via the fibrin-rich clots technique under isoflurane anesthesia. Surgical anesthesia is induced with isoflurane (5% induction, 2% maintenance, […]). Rats are cannulated with a femoral artery catheter for measurement of arterial blood gases, pH (Ciba-Corning 248 pH/blood gas analyzer), blood glucose, hematocrit and mean arterial blood pressure. The body temperature of the animals is maintained at […] with a heating pad controlled by rectal thermistors. A closed cranial window is made in the right parietal skull (2 mm posterior, 6 mm lateral to bregma) for laser doppler probe placement. The rats are mounted on a modified stereotaxic frame equipped with a facemask. The right common carotid artery (CCA), the right internal carotid artery (ICA) and the right external carotid artery (ECA) are exposed by a ventral incision in throat. After surgical preparation of the right CCA and ligation of the pterygo-palatine artery, a PE10 catheter is inserted into the ECA. The tip of the catheter is placed close to the carotid bifurcation. To achieve thromboembolic occlusion of the right middle cerebral artery, 12 medium-sized fibrin rich clots suspended in phosphate with phosphate buffered saline (0.3 ml) are injected by a 1 ml syringe connected to the catheter. […]"}, "MMP-9": {"system": "MMP-9", "test": "MMP-9 levels in bEND3 cells exposed to H/R and tPA", "assay_type": "cell-based, mouse", "settings": "bEND3 cells exposed to H/R and tPA for 9 hours; progesterone pretreatment", "procedure": "The bEnd 3 cells grown to confluence on coverslips are subjected to the indicated treatments. For […], cells are washed three times with PBS, fixed in 3% paraformaldehyde for 10 minutes, permeabilized with 02% Triton X-100 in PBS for 10 minutes and blocked with 10% BSA and 0.1% Triton X-100 in PBS for 1 hour. After washing with PBS, the monolyers are incubated with a primary antibody for occludin (Invitrogen, 1:200) and MMP-9 (Abeam, Mass., USA, 1:200) overnight at 4° C. The cell monolayers are then washed 3 times with PBS and incubated with Alexa Fluor 488 anti-rabbit and orange anti-mouse (Molecular Probes, Eugene, Oreg.) for 1 hour. After washing in PBS, the coverslips are mounted on glass slides with Vectasheild with dapi (Vecta Laboratories).\nas §2\nTo directly determine MMP-9 activity after ischemia, proteolytic activity of MMP-9 was measured using a fluorescence resonance energy transfer peptide. […]"}, "bEND3 cells": {"system": "bEND3 cells", "test": "Transendothelial electrical resistance (TEER) after hypoxia/reperfusion (H/R)", "assay_type": "cell-based, mouse", "settings": "tPA 20 μ/ml; 6 hours hypoxia, 3 hours reoxygenation", "procedure": "as §1\nThe electrical resistance across the membrane are measured using an Millicell ERS Voltohmmeter (Millipore, Billerica, Mass.). The extracellular matrix-treated Transwell inserts are placed in 12-well plates containing culture medium and then used to measure the background resistance. The resistance measurements of these blank filters are then subtracted from those of filters with cells. Values are shown as Q. based on culture inserts.\nTo mimic ischemia-like conditions in vitro, immortalized mouse brain endothelial (bEND3) cells were exposed to 6 hours of hypoxia and 3 hours of reoxygeneation with or without the administration of tPA at a dose of 20 μ/ml. Reoxygenation was initiated by adding glucose (4.5 g/L)-containing phenol red-free DMEM for 3 hours at 37° C. in 95% air and 5% CO2. The cells were treated with various concentrations progesterone for 24 hours before hypoxia/reperfusion (H/R). BBB integrity was evaluated by transendothelial membrane electrical resistance (TEER) measurement, MMP-9 activity, and the alteration of tight junction proteins following in vitro H/R injury."}, "claudin-5 [3]": {"system": "claudin-5", "test": "Tight junction protein Western blot in vivo (ischemic cortices): claudin-5", "set-up": "species or system rat", "settings": "24 hours after ischemia, compared to stroke without tPA / with tPA", "procedure": "Peri-infarct cortical tissue is processed for protein analysis. Tissues are homogenized in T-per (Pierce, Rockford, Ill.) containing protease inhibitor cocktail (P8340, Sigma). Homogenates are centrifuged for 15 minutes at 13,000 g. 40 μg of total protein is separated on 8-12% gel and transferred onto polyvinylidene difluoride (Millipore, Mass., USA; PVDF) membranes at 300 mA for 2 hours. To measure the level of immunoglobulin, the membranes were incubated overnight at 4° C. with anti Rat IgG conjugated to biotin. bEND 3 cells are subjected to hypoxia/reperfusion for 9 hours and then lysed on ice in 100 μl of RIPA buffer. Cell lysated are boiled and then electrophoresed in 12% SDS-PAGE acrylamide gels, transferred onto PVDF membranes, and incubated for 1 hour in TBS-T (tris-buffered saline and 0.1% Tween 20) containing 5% bovine serum albumin (BSA). Membranes are then incubated overnight at 4° C. with primary antibodies against occludin (Invitrogen, Calif., USA; 1:1000), claudin-5 (Invitrogen; 1:1000), and ZO-1 (Invitrogen; 1:1000), washed in TBS-T, and incubated for 1 hour at room temperature with corresponding peroxidase-conjugated secondary antibodies (1:5000; KPL, Gaithersburg, Md.). All blots are stripped and re-incubated with β-actin antibodies (1:5000, Sigma) as a loading control. […] Intensity of the bands is measured by an Image Gauge version. […]"}}, "data": [{"substance": "tPA: serum protease acting specifically on serum plasminogen; also known as alteplase, available commercially as Activase", "values": [{"measurement": "Expression of 23-kDa claudin-5 (Western blot)", "setting": "claudin-5 [1]", "value": "markedly decreased"}, {"measurement": "Hemispheric enlargement and hemorrhage", "setting": "[2]", "value": "significant hemispheric enlargement and hemorrhage"}, {"measurement": "MMP-9 levels", "setting": "MMP-9", "value": "increased"}, {"measurement": "TEER under H/R conditions", "setting": "bEND3 cells", "value": "significantly decreased"}, {"measurement": "Lower molecular weight 17-kDa claudin-5 fragments", "setting": "claudin-5 [3]", "value": "increase"}]}]}
